Assay results: the supplement of paper PMC11061612

Tests used:
Experiment in all cases: combination Emax (second highest fraction inhibited in the dose matrix, 72 h); higher = more inhibition; extreme values may be limits of the assay
[1] = tested on: A4-Fuk (B-Lymphoblastic Leukemia)
Outline: (§1)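 Cell lines grown in DMEM/F12 or RPMI with 10% FBS were plated in 1536-well plates and held 24 hours at 37°C, 5% CO2 before 72 hours of exposure to two-drug dose matrices, with DMSO typically at 0.2%. CellTiter-Glo 2.0 luminescence gave viability, which was converted to inhibition. Vehicle wells were set to 0 and blank wells to 1. Combination Emax is the second-highest inhibition in the matrix, and Bliss excess is the observed combination effect minus the expected EA + EB − EA·EB, where EA and EB are the single-agent effects.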

[2] = tested on: ALL-SIL (T-Lymphoblastic Leukemia)
Outline: as §1

COLO-679 (Melanoma) = tested on: COLO-679 (Melanoma)
Outline: as §1

[3] = tested on: Ca-Ski (Cervical Carcinoma)
Outline: as §1

[4] = tested on: EJM (Plasma Cell Myeloma)
Outline: as §1

[5] = tested on: HCC1500 (Breast Carcinoma)
Outline: as §1

Hey (Ovarian Carcinoma) = tested on: Hey (Ovarian Carcinoma)
Outline: as §1

[6] = tested on: KGN (Other Solid Carcinomas)
Outline: as §1

[7] = tested on: KOPN-8 (B-Lymphoblastic Leukemia)
Outline: as §1

[8] = tested on: MDA-MB-453 (Breast Carcinoma)
Outline: as §1

[9] = tested on: ME-180 (Cervical Carcinoma)
Outline: as §1

[10] = tested on: ML-2 (Acute Myeloid Leukemia)
Outline: as §1

[11] = tested on: MOLT-4 (T-Lymphoblastic Leukemia)
Outline: as §1

[12] = tested on: MV-4-11 (Acute Myeloid Leukemia)
Outline: as §1

[13] = tested on: NCI-H1092 (Small Cell Lung Carcinoma)
Outline: as §1

[14] = tested on: NCI-H1993 (Lung Adenocarcinoma)
Outline: as §1

[15] = tested on: NCI-H522 (Lung Adenocarcinoma)
Outline: as §1

[16] = tested on: OACM5-1 (Esophageal Adenocarcinoma)
Outline: as §1

[17] = tested on: OE33 (Esophageal Adenocarcinoma)
Outline: as §1

[18] = tested on: SK-LU-1 (Lung Adenocarcinoma)
Outline: as §1

| Compound | combination Emax [1] | combination Emax [2] | combination Emax (COLO-679 (Melanoma)) | combination Emax [3] | combination Emax [4] | combination Emax [5] | combination Emax (Hey (Ovarian Carcinoma)) | combination Emax [6] | combination Emax [7] | combination Emax [8] | combination Emax [9] | combination Emax [10] | combination Emax [11] | combination Emax [12] | combination Emax [13] | combination Emax [14] | combination Emax [15] | combination Emax [16] | combination Emax [17] | combination Emax [18] |
| --- | --- | --- | --- | --- | --- | --- | --- | --- | --- | --- | --- | --- | --- | --- | --- | --- | --- | --- | --- | --- |
| Cc1c2c(nn1C)CSCc1cc(n(C)n1)CSc1cc(c3ccccc3c1)OCCCc1c(C(=O)O)n(C)c3c-2c(Cl)ccc13 [AZD5991] + C=CCn1c(=O)c2cnc(Nc3ccc(N4CCN(C)CC4)cc3)nc2n1-c1cccc(C(C)(C)O)n1 [AZD1775] (first compound max 1 µM, partner max 1 µM) | 1 | 1 | 0.529 | 0.816 | 1 | 0.49 | 0.59 | 0.725 | 0.998 | 0.4 | 0.52 | 1 | 1 | 1 | 0.696 | 0.629 | 0.516 | 0.928 | 0.573 | 0.575 |
| COc1nnc2ccc(N3CCC(c4ccc(OCCN5CCN(C)C(=O)[C@H]5C)cc4)CC3)nn12 [AZD5153] + C[C@@H]1COCCN1C2=NC(=NC(=C2)C3(CC3)[S@](=N)(=O)C)C4=C5C=CNC5=NC=C4 [AZD6738] (first compound max 1 µM, 7x7, partner max 10 µM) | 0.882 | 1 | 0.718 | 0.794 | 0.867 | 0.454 | 0.796 | 0.822 | 1 | 0.837 | 0.696 | 1 | 0.999 | 1 | 0.523 | 0.738 | 0.565 | 0.886 | 0.731 | 0.516 |
| C=CCn1c(=O)c2cnc(Nc3ccc(N4CCN(C)CC4)cc3)nc2n1-c1cccc(C(C)(C)O)n1 [AZD1775] + O=C(c1cc(Cc2n[nH]c(=O)c3ccccc23)ccc1F)N1CCN(C(=O)C2CC2)CC1 [Olaparib] (first compound max 1 µM, partner max 10 µM) | 0.875 | 0.899 | 0.491 | 0.797 | 0.891 | 0.227 | 0.552 | 0.745 | 0.904 | 0.411 | 0.457 | 1 | 1 | 0.978 | 0.382 | 0.604 | 0.363 | 0.353 | 0.507 | 0.436 |
| COc1nnc2ccc(N3CCC(c4ccc(OCCN5CCN(C)C(=O)[C@H]5C)cc4)CC3)nn12 [AZD5153] + Cc1c2c(nn1C)CSCc1cc(n(C)n1)CSc1cc(c3ccccc3c1)OCCCc1c(C(=O)O)n(C)c3c-2c(Cl)ccc13 [AZD5991] (first compound max 1 µM, 7x7, partner max 1 µM) | 1 | 0.984 | 0.874 | 0.835 | 0.89 | 0.696 | 0.598 | 0.742 | 1 | 0.953 | 0.438 | 1 | 0.95 | 1 | 0.865 | 0.552 | 0.942 | 0.952 | 0.242 | 0.388 |
| Cc1c2c(nn1C)CSCc1cc(n(C)n1)CSc1cc(c3ccccc3c1)OCCCc1c(C(=O)O)n(C)c3c-2c(Cl)ccc13 [AZD5991] + CCN(CCO)CCCOc1ccc2c(Nc3cc(CC(=O)Nc4cccc(F)c4)[nH]n3)ncnc2c1 [AZD2811] (first compound max 1 µM, 7x7, partner max 1 µM) | 1 | 1 | 0.42 | 0.7 | 0.949 | 0.53 | 0.331 | 0.574 | 0.983 | 0.75 | 0.343 | 1 | 0.941 | 1 | 0.626 | 0.232 | 0.657 | 0.946 | 0.139 | 0.41 |
| CN(CCO)CC[C@H](CSc1ccccc1)Nc1ccc(S(=O)(=O)NC(=O)c2ccc(N3CCC([C@@H](O)c4ccccc4-c4ccc(Cl)cc4)CC3)cc2)cc1S(=O)(=O)C(F)(F)F [AZD4320] + C=CCn1c(=O)c2cnc(Nc3ccc(N4CCN(C)CC4)cc3)nc2n1-c1cccc(C(C)(C)O)n1 [AZD1775] (first compound max 1 µM, partner max 1 µM) | 0.898 | 1 | 0.521 | 0.96 | 0.977 | 0.995 | 0.673 | 0.784 | 1 | 0.285 | 0.581 | 1 | 1 | 1 | 0.809 | 0.927 | 0.237 | 0.635 | 0.492 | 0.542 |
| COc1nnc2ccc(N3CCC(c4ccc(OCCN5CCN(C)C(=O)[C@H]5C)cc4)CC3)nn12 [AZD5153] + CC1(C)CCC(CN2CCN(c3ccc(C(=O)NS(=O)(=O)c4ccc(NCC5CCOCC5)c([N+](=O)[O-])c4)c(Oc4cnc5[nH]ccc5c4)c3)CC2)=C(c2ccc(Cl)cc2)C1 [Venetoclax] (first compound max 1 µM, 7x7, partner max 1 µM) | 0.871 | 0.956 | 0.442 | 0.616 | 0.543 | 0.755 | 0.523 | 0.729 | 1 | 0.649 | 0.49 | 1 | 0.425 | 1 | 0.478 | 0.444 | 0.415 | 0.607 | 0.19 | 0.358 |
| Cn1cnc2c(F)c(Nc3ccc(Br)cc3Cl)c(C(=O)NOCCO)cc21 [Selumetinib] + C=CCn1c(=O)c2cnc(Nc3ccc(N4CCN(C)CC4)cc3)nc2n1-c1cccc(C(C)(C)O)n1 [AZD1775] (first compound max 10 µM, partner max 1 µM) | 0.948 | 0.881 | 0.823 | 0.711 | 0.867 | 0.207 | 0.719 | 0.695 | 0.995 | 0.206 | 0.478 | 0.994 | 1 | 0.915 | 0.371 | 0.83 | 0.177 | 0.642 | 0.445 | 0.46 |
| Cc1c2c(nn1C)CSCc1cc(n(C)n1)CSc1cc(c3ccccc3c1)OCCCc1c(C(=O)O)n(C)c3c-2c(Cl)ccc13 [AZD5991] + C[C@@H]1COCCN1C2=NC(=NC(=C2)C3(CC3)[S@](=N)(=O)C)C4=C5C=CNC5=NC=C4 [AZD6738] (first compound max 1 µM, 7x7, partner max 10 µM) | 1 | 1 | 0.674 | 0.717 | 1 | 0.781 | 0.806 | 0.772 | 0.998 | 0.886 | 0.485 | 1 | 1 | 1 | 0.887 | 0.517 | 0.417 | 0.928 | 0.784 | 0.521 |
| NC1(C(=O)N[C@@H](CCO)c2ccc(Cl)cc2)CCN(c2ncnc3[nH]ccc23)CC1 [Capivasertib] + C[C@@H]1COCCN1C2=NC(=NC(=C2)C3(CC3)[S@](=N)(=O)C)C4=C5C=CNC5=NC=C4 [AZD6738] (first compound max 10 µM, 7x7, partner max 10 µM) | 0.942 | 0.932 | 0.634 | 0.582 | 0.908 | 0.335 | 0.777 | 0.9 | 0.986 | 0.706 | 0.755 | 0.928 | 1 | 0.975 | 0.387 | 0.742 | 0.251 | 0.774 | 0.748 | 0.511 |
| Cn1cnc2c(F)c(Nc3ccc(Br)cc3Cl)c(C(=O)NOCCO)cc21 [Selumetinib] + CC(C)n1c(=O)n(C)c2cnc3cc(F)c(-c4ccc(OCCCN5CCCCC5)nc4)cc3c21 [AZD1390] (first compound max 10 µM, 7x7, partner max 0.3 µM) | 0.404 | 0.25 | 0.796 | 0.222 | 0.0932 | 0.157 | 0.549 | 0.341 | 0.596 | 0.171 | 0.209 | 0.78 | 0.348 | 0.711 | 0.0809 | 0.627 | 0.0811 | 0.209 | 0.265 | 0.264 |
| COc1nnc2ccc(N3CCC(c4ccc(OCCN5CCN(C)C(=O)[C@H]5C)cc4)CC3)nn12 [AZD5153] + CCN(CCO)CCCOc1ccc2c(Nc3cc(CC(=O)Nc4cccc(F)c4)[nH]n3)ncnc2c1 [AZD2811] (first compound max 1 µM, 7x7, partner max 1 µM) | 0.893 | 1 | 0.485 | 0.591 | 0.613 | 0.41 | 0.618 | 0.691 | 0.996 | 0.677 | 0.524 | 1 | 1 | 1 | 0.374 | 0.479 | 0.344 | 0.734 | 0.301 | 0.404 |
| CCN(CCO)CCCOc1ccc2c(Nc3cc(CC(=O)Nc4cccc(F)c4)[nH]n3)ncnc2c1 [AZD2811] + O=C(c1cc(Cc2n[nH]c(=O)c3ccccc23)ccc1F)N1CCN(C(=O)C2CC2)CC1 [Olaparib] (first compound max 1 µM, 7x7, partner max 10 µM) | 0.437 | 0.953 | 0.281 | 0.289 | 0.167 | 0.22 | 0.319 | 0.629 | 0.709 | 0.112 | 0.252 | 0.835 | 0.974 | 0.961 | 0.212 | 0.191 | 0.221 | 0.247 | 0.127 | 0.229 |
